# Experimental data reported in US20190209501A1, “COMPOSITIONS AND METHODS OF USE OF BETA-HYDROXY-BETA-METHYLBUTYRATE (HMB) […] IN[…]” (Texas Tech University Office of Research Commercialization, priority 2018, published 2019).
# Columns and labels:
# Assay type in all cases: in vivo, human
# [1] = Questionnaires (Mood and Feelings, Pittsburgh Sleep Quality Index, Three-Factor Eating); details: for MFQ Δ / MFQ Δ (%) / PSQI Δ / PSQI Δ (%) / TFEQ-CR Δ / TFEQ-CR Δ (%) / TFEQ-EE Δ / TFEQ-EE Δ (%) / TFEQ-UE Δ / TFEQ-UE Δ (%): change baseline to W 8
# Excerpt: As part of the screening procedures, participants were interviewed using a lifestyle questionnaire for determination of baseline eating and exercise habits. Participants completed follow-up lifestyle questionnaires at subsequent research visits. Additionally, participants completed the Mood and Feelings Questionnaire (38), the Pittsburgh Sleep Quality Index (39), the Three-Factor Eating Questionnaire Revised 18-item version (40) and a menstrual cycle questionnaire at each morning laboratory assessment session.
# [2] = 1-repetition maximum and repetitions to failure, bench press and hip sled (leg press); details: for 1RMBP (kg) Week 4 / 1RMBP (kg) Week 8: 1-repetition maximum bench press; for 1RMBP (kg) Week 4 / 1RMBP (kg) Week 8 / 1RMLP (kg) Week 8 / RTFBP (reps) Week 4 / RTFBP (reps) Week 8 / RTFLP (reps) Week 8: mean ± SE; for 1RMLP (kg) Week 8: 1-repetition maximum leg press; for 1RMBP Δ (%) / 1RMLP Δ (%) / RTFBP Δ (%) / RTFLP Δ (%): change baseline to week 8 relative to baseline; for RTFBP (reps) Week 4 / RTFBP (reps) Week 8: repetitions to failure bench press; for RTFBP (reps) Week 4 / RTFBP (reps) Week 8 / RTFLP (reps) Week 8: 70% of baseline 1-RM; for RTFLP (reps) Week 8: repetitions to failure leg press; for 1RMBP (kg) Δ / 1RMLP (kg) Δ / RTFBP (reps) Δ / RTFLP (reps) Δ: week 8 minus baseline
# Excerpt: Assessments of muscular performance took place between 12:00 and 18:00 in the non-fasted state, and participants were instructed to follow their preferred food and fluid intake patterns prior to testing. The assessment began with a 5-minute warm up period using a self-selected pace on a stationary bicycle. This warm up period was followed by assessment of countermovement vertical jumps (CMVJ) performance, testing on a mechanized squat device, and muscular strength and endurance assessment on the bench press and hip sled exercises. At the 4-week assessment, the CMVJ and hip sled assessments were not performed.
# Resistance exercise performance for the bench press and hip sled exercises was evaluated via the 1-repetition maximum (1RM) and repetitions to failure with 70% of the 1RM. The 1RM testing protocol was based on the recommendations of the National Strength and Conditioning Association (33). Briefly, after completing warm up sets, participants completed 2 to 3 repetitions using a load estimated to be near-maximal. 1RM attempts then commenced, with the goal of obtaining the 1RM in between 3 and 5 attempts. Three minutes of rest were allowed between attempts. The maximal weight lifted with proper form was recorded as the 1RM. After the 1RM was obtained, a 3-minute rest period was allowed before repetitions to failure (RTF) were completed using 70% of the 1RM. For all participants, the bench press was tested before the leg press in order to allow for recovery of the lower body following the mechanized squat testing.
# [3] = Resting energy expenditure and substrate utilization (RQ) via indirect calorimetry; details: for RMR Δ / RMR Δ (%) / RQ Δ / RQ Δ (%): baseline to W 8; for RMR ES (d) / RQ ES (d): effect size
# Protocol: REE and substrate utilization were assessed via indirect calorimetry (TrueOne 2400. ParvoMedics, Sandy, Utah, USA). Gas and flow calibrations were performed each morning according to manufacturer specifications, and the pre-assessment procedures of Compher et al. (34) were utilized. Participants were instructed to remain motionless but awake during the assessment, which took place in a climate-controlled room with the lights dimmed. The first five minutes of each test were discarded, and the assessment continued until there was a period of 5 consecutive minutes with a coefficient of variation (CV) for REE of ≤5%. The average CV for REE in the present study was 3.2±1.1% (mean±SD).
# [4] = ITT analysis, Cohen's d baseline vs week 8
# [5] = PP analysis, Cohen's d baseline vs week 8
smiles,measurement,setting,value
"CC(C)(O)CC(=O)O [TRFHMB, β-hydroxy-β-methylbutyrate]",MFQ score,"[1]; ITT, Baseline, mean ± SE",1.4 ± 0.6
same,PSQI score,"[1]; ITT, Baseline, mean ± SE",3.1 ± 0.3
same,TFEQ-CR score,"[1]; ITT, Baseline, mean ± SE",17.8 ± 1
same,TFEQ-UE score,"[1]; ITT, Baseline, mean ± SE",20.0 ± 1.2
same,MFQ score,"[1]; ITT, W 4, mean ± SE",0.7 ± 0.4
same,PSQI score,"[1]; ITT, W 4, mean ± SE",3.0 ± 0.3
same,TFEQ-CR score,"[1]; ITT, W 4, mean ± SE",18.0 ± 1
same,TFEQ-EE score,"[1]; ITT, W 4, mean ± SE",4.9 ± 0.5
same,TFEQ-UE score,"[1]; ITT, W 4, mean ± SE",18.1 ± 1.4
same,MFQ score,"[1]; ITT, W 8, mean ± SE",0.4 ± 0.4
same,PSQI score,"[1]; ITT, W 8, mean ± SE",2.7 ± 0.2
same,TFEQ-CR score,"[1]; ITT, W 8, mean ± SE",18.2 ± 1.1
same,TFEQ-EE score,"[1]; ITT, W 8, mean ± SE",4.5 ± 0.6
same,TFEQ-UE score,"[1]; ITT, W 8, mean ± SE",16.3 ± 1.3
same,MFQ Δ,[1]; ITT,−1.0
same,MFQ Δ (%),[1]; ITT,−71%
same,PSQI Δ,[1]; ITT,−0.4
same,PSQI Δ (%),[1]; ITT,−13%
same,TFEQ-CR Δ,[1]; ITT,0.4
same,TFEQ-CR Δ (%),[1]; ITT,2%
same,TFEQ-EE Δ,[1]; ITT,−0.9
same,TFEQ-EE Δ (%),[1]; ITT,−17%
same,TFEQ-UE Δ,[1]; ITT,−3.7
same,TFEQ-UE Δ (%),[1]; ITT,−19%
same,MFQ (Mood and Feelings Questionnaire) score,"[1]; PP, Baseline, mean ± SE",1.1 ± 0.7
same,PSQI (Pittsburgh Sleep Quality Index) score,"[1]; PP, Baseline, mean ± SE",3.1 ± 0.3
same,"TFEQ-CR (Three-Factor Eating Questionnaire, Cognitive Restraint) score","[1]; PP, Baseline, mean ± SE",17.1 ± 1.2
same,TFEQ-EE (Emotional Eating) score,"[1]; PP, Baseline, mean ± SE",4.9 ± 0.6
same,TFEQ-UE (Uncontrolled Eating) score,"[1]; PP, Baseline, mean ± SE",18.4 ± 1.3
same,MFQ score,"[1]; PP, W 4, mean ± SE",0.6 ± 0.5
same,PSQI score,"[1]; PP, W 4, mean ± SE",2.7 ± 0.3
same,TFEQ-CR score,"[1]; PP, W 4, mean ± SE",18.3 ± 1.2
same,TFEQ-EE score,"[1]; PP, W 4, mean ± SE",4.4 ± 0.7
same,TFEQ-UE score,"[1]; PP, W 4, mean ± SE",18.7 ± 2.0
same,MFQ score,"[1]; PP, W 8, mean ± SE",0.1 ± 0.5
same,PSQI score,"[1]; PP, W 8, mean ± SE",2.6 ± 0.3
same,TFEQ-CR score,"[1]; PP, W 8, mean ± SE",18.8 ± 1.1
same,TFEQ-EE score,"[1]; PP, W 8, mean ± SE",3.7 ± 0.7
same,TFEQ-UE score,"[1]; PP, W 8, mean ± SE",15.5 ± 1.8
same,MFQ Δ,[1]; PP,−1.0
same,MFQ Δ (%),[1]; PP,−91%
same,PSQI Δ,[1]; PP,−0.5
same,PSQI Δ (%),[1]; PP,−16%
same,TFEQ-CR Δ,[1]; PP,1.7
same,TFEQ-CR Δ (%),[1]; PP,10%
same,TFEQ-EE Δ,[1]; PP,−1.2
same,TFEQ-EE Δ (%),[1]; PP,−24%
same,TFEQ-UE Δ,[1]; PP,−2.9
same,TFEQ-UE Δ (%),[1]; PP,−16%
same,1RMBP (kg) Week 4,[2]; ITT analysis,42.3 ± 2.4 kg
same,1RMBP (kg) Week 8,[2]; ITT analysis,47.3 ± 2.5 kg
same,1RMLP (kg) Week 8,[2]; ITT analysis,205.2 ± 15.0 kg
same,1RMLP ES (d),[2]; [4],1.65
same,RTFBP ES (d),[2]; [4],1.91
same,RTFLP ES (d),[2]; [4],1.52
same,1RMBP Δ (%),[2]; ITT analysis,21%
same,1RMLP Δ (%),[2]; ITT analysis,57%
same,RTFBP Δ (%),[2]; ITT analysis,68%
same,RTFLP Δ (%),[2]; ITT analysis,145%
same,RTFBP (reps) Week 4,[2]; ITT analysis,20.0 ± 1.6 reps
same,RTFBP (reps) Week 8,[2]; ITT analysis,24.9 ± 1.8 reps
same,RTFLP (reps) Week 8,[2]; ITT analysis,38.0 ± 5.4 reps
same,1RMBP (kg) Δ,[2]; ITT analysis,8 kg
same,1RMLP (kg) Δ,[2]; ITT analysis,75 kg
same,RTFBP (reps) Δ,[2]; ITT analysis,10 reps
same,RTFLP (reps) Δ,[2]; ITT analysis,23 reps
same,Average ES for muscular endurance (RTFLP and RTFBP),"[2]; PP analysis only, vs 2.3 in CD",1.5
same,1RMBP (kg) Week 4,[2]; PP analysis,43 ± 4 kg
same,1RMBP (kg) Week 8,[2]; PP analysis,48 ± 4 kg
same,1RMLP (kg) Week 8,[2]; PP analysis,220 ± 19 kg
same,1RMBP ES (d),[2]; [5],0.76
same,1RMLP ES (d),[2]; [5],1.80
same,RTFBP ES (d),[2]; [5],1.86
same,RTFLP ES (d),[2]; [5],1.27
same,1RMBP Δ (%),[2]; PP analysis,20%
same,1RMLP Δ (%),[2]; PP analysis,51%
same,RTFBP Δ (%),[2]; PP analysis,79%
same,RTFLP Δ (%),[2]; PP analysis,94%
same,RTFBP (reps) Week 4,[2]; PP analysis,20 ± 2 reps
same,RTFBP (reps) Week 8,[2]; PP analysis,25 ± 3 reps
same,RTFLP (reps) Week 8,[2]; PP analysis,31 ± 6 reps
same,1RMBP (kg) Δ,[2]; PP analysis,8 kg
same,1RMLP (kg) Δ,[2]; PP analysis,74 kg
same,RTFBP (reps) Δ,[2]; PP analysis,11 reps
same,RTFLP (reps) Δ,[2]; PP analysis,15 reps
same,RMR,"[3]; ITT, Baseline",1466 ± 48 kcal/day
same,RQ,"[3]; ITT, Baseline",0.82 ± 0.02 au
same,RMR,"[3]; ITT, W 8",1481 ± 44 kcal/day
same,RMR Δ,[3]; ITT,15 kcal/day
same,RMR Δ (%),[3]; ITT,1%
same,RQ Δ,[3]; ITT,−0.03 au
same,RQ Δ (%),[3]; ITT,−4%
same,RMR ES (d),[3]; ITT,0.09
same,RQ ES (d),[3]; ITT,−0.42
same,RMR,"[3]; PP, Baseline",1472 ± 61 kcal/day
same,RQ,"[3]; PP, Baseline",0.81 ± 0.03 au
same,RMR,"[3]; PP, W 8",1519 ± 57 kcal/day
same,RQ,"[3]; PP, W 8",0.78 ± 0.02 au
same,RMR Δ,[3]; PP,47 kcal/day
same,RMR Δ (%),[3]; PP,3%
same,RQ Δ,[3]; PP,−0.03 au
same,RQ Δ (%),[3]; PP,−4%
same,RMR ES (d),[3]; PP,0.30
same,RQ ES (d),[3]; PP,−0.44
same,Resting metabolic rate change,[3]; versus baseline,+47 kcal/d
same,Resting metabolic rate change (%),[3]; versus baseline,3%
